Measurements: patent publication US11980774B2, “Illumination devices and related methods for phototherapeutic light treatments in the presence of vitamins” (priority 2021, dated 2024)

System: South African variant of SARS-CoV-2 (SARS-CoV-2 SA)
Assay type: cell-based
Conditions: 10 μM RFN, no ascorbate; 425 nm light 7.5 J/cm^2; FIG. 3B

Structure (SMILES): Cc1cc2nc3c(=O)[nH]c(=O)nc-3n(C[C@H](O)[C@H](O)[C@H](O)CO)c2cc1C [riboflavin]
- fold reduction in viral loads of SARS-CoV-2 SA: 642 fold
- reduction in viral loads of SARS-CoV-2 SA: ~99.8%
- reductions in viral loads of SARS-CoV-2 SA: significant reductions
